Assay results reported in patent US12162856B2, “β-catenin and B-cell lymphoma 9 (BCL9) inhibitors” (H. LEE MOFFITT CANCER CENTER AND RESEARCH INSTITUTE, INC., priority 2019, dated 2024).
Where a name gives a salt, the structure may show the parent alone. Read-outs that look alike come from different tables or passages of the source.

Legend:
β-catenin/BCL9 PPI = target: T1, β-catenin/BCL9 PPI (Homo sapiens, UniProt P35222); test: AlphaScreen competitive inhibition assay of the β-catenin/BCL9 PPI; format: binding; conditions: mean ± SD, triplicate, Ki derived from IC50 (Nikolovska-Coleska equation)
T1 construct: Wild-type full-length β-catenin were cloned into a pET-28b vector; made in house; host or cells: Escherichia coli BL21 DE3 (β-catenin); BCL9 peptide chemically synthesized
T1 sequence (P35222 1-781): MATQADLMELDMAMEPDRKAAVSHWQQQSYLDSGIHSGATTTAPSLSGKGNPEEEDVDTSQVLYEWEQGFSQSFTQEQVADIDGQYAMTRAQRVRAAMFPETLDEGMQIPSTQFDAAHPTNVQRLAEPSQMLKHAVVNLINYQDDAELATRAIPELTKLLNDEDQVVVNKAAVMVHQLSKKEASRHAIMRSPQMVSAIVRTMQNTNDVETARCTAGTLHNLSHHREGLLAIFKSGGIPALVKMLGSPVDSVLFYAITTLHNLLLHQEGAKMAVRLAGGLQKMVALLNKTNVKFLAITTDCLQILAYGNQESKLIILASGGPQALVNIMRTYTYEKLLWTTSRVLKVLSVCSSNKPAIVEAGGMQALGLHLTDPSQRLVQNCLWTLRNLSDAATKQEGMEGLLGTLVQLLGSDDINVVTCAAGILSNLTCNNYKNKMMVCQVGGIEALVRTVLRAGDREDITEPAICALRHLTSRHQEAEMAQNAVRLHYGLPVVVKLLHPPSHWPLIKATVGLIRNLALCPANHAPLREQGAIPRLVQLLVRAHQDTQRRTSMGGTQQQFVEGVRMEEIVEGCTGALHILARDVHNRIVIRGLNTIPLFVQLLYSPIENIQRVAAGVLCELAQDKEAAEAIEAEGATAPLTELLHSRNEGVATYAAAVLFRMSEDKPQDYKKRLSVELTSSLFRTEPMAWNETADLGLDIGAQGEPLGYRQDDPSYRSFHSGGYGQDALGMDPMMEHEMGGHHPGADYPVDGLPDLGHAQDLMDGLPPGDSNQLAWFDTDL
Method: Protein expression and purification. Wild-type full-length β-catenin were cloned into a pET-28b vector carrying a C-terminal 6×histidine (Novagen), and transformed into Escherichia coli BL21 DE3 (Novagen). Cells were cultured in LB medium with 30 μg/mL kanamycin until the OD600 was approximately 0.8, and then protein expression was induced with 400 μM of IPTG at 20° C. overnight. Cells were lysed by sonication. The proteins were purified by Ni-NTA affinity chromatography (30210, Qiagen) and dialyzed against a buffer containing 20 mM of Tris (pH 8.5), 100 mM NaCl, 10% glycerol, and 3 mM DTT. The purity of β-eaten in was greater than 95% as determined by SDS-PAGE gel analysis. Native non-denaturing gel electrophoresis was performed to confirm the homogeneity of the purified proteins. Thermal-shift assay was performed on an iCycler iQ Real Time Detection System (Bio-Rad) to monitor protein stability and detect protein aggregation. Protein unfolding was evaluated through measuring the S15 fluorescence changes of fluorescent dye Sypro Orange when interacting with wild-type or mutant β-catenin proteins. A temperature increment of […] was applied. CD spectra were measured on a J-815 spectropolarimeter (Jasco). All spectra were recorded at room temperature, and the baseline control containing all of the substances except protein. Sample were prepared at a concentration around 1-5 μM in a buffer of 10 mM potassium phosphate and 100 mM potassium fluoride at pH 7.0 to ensure that the transmission of light through the sample was not restricted. All proteins were stable and no aggregation was observed under storage or assay conditions. Proteins were aliquoted and stored at −80° C.
BCL9 peptide synthesis and purification. Human BCL9 (residues 350-375), and […] biotinylated human BCL9 (residues 350-375) were synthesized. All synthesized peptides were purified by HPLC with purity >95%. The structures were validated by LC/MS. The sequences are as follows (Ahx, 6-aminohexanoic acid).
AlphaScreen competitive inhibition assays. For the competitive inhibition assays of the β-catenin/BCL9 PPI, the negative control (equivalent to 0% inhibition) refers to 5.0 nM of biotinylated BCL9, 40 nM of His6-tagged β-catenin, and 10 μg/mL of donor and acceptor beads in a final volume of 25 μL assay buffer, but no tested inhibitor present. The positive control (equivalent to 100% inhibition) refers to 5.0 nM of biotinylated BCL9 and […] of donor and acceptor beads in a final volume of 25 μL assay buffer.
For the β-catenin/BCL9 assay, 5 nM of biotinylated BCL9 and 40 nM of His6-tagged β-catenin were incubated in assay buffer at 4° C. for 30 min. Different concentrations of the tested inhibitor were added and incubated in 20 μL assay buffer at 4° C. for another 1 h. All of the above assay plates were covered and gently mixed on an orbital shaker. The donor and acceptor beads were then added to the plates to a final concentration of 10 μg/mL in 25 μL assay buffer. The mixture was incubated for 1 h at 4° C. before detection. The IC50 value was determined by nonlinear least-square analysis of GraphPad Prism 5.0. The Ki values were derived from the IC50 values using a method reported by Nikolovska-Coleska et al (Nikolovska-Coleska, Z.; Wang, R.; Fang, X.; Pan, H.; Tomita, Y.; Li, P.; Roller, P. P.; Krajewski, K.; Saito, N. G.; Stuckey, J. A.; Wang, S. Development and optimization of a binding assay for the XIAP BIR3 domain using fluorescence polarization. Anal. Biochem. 2004, 332, 261-273.). The assays were conducted under the conditions required by Nikolovska-Coleska et al.'s equation for determining the Ki values. All of the experiments were performed in triplicate. The results were expressed as mean±standard deviation.

[1] = target: T2, β-catenin/BCL9 interaction (Homo sapiens, UniProt P35222); conditions: reported in the literature; cited from earlier work
T2 sequence (P35222 1-781): T1 sequence (P35222 1-781)

Wnt target genes = conditions: reported in the literature; cited from earlier work

Molecule CC(=O)Nc1cc(F)cc(C(=O)N2CCN(C(=O)c3ccc(O[C@H]4CCNC4)c(C4CCCCC4)c3)[C@@H](CC(C)C)C2)c1 [Compound 16, N-(3-((S)-4-(3-Cyclohexyl-4-(((S)-pyrrolidin-3-yl)oxy)benzoyl)-3-isobutylpiperazine-1-carbonyl)-5-fluorophenyl)acetamide trifluoroacetate] has a Ki (β-catenin/BCL9 PPI; experiment 3, read-out: Ki (μM ± SD) experiment 3) of 330 ± 43 µM and a Ki (β-catenin/BCL9 PPI; experiment 4, read-out: Ki (μM ± SD) experiment 4) of 200 ± 20 µM.

In the case of CC(C)c1cc2c(c(O)c1O)[C@@]1(C(=O)O)CCCC(C)(C)[C@@H]1CC2 [camosic acid, Carnosic acid], the “disruption of the β-catenin/BCL9 interaction” value [1] is listed as “can disrupt the β-catenin/BCL9 interaction” and the “suppression of Wnt target gene / β-catenin-dependent transcription” value (Wnt target genes) is listed as “inhibit β-catenin-dependent transcription”.
